Experimental data taken from article PMC11380953, “Multivalent, calcium-independent binding of surfactant protein A and D to sulfated glycosaminoglycans of the alveolar epithelial glycocalyx” (American Journal of Physiology - Lung Cellular and …, 2024).

Target: T1, hSP-A (Homo sapiens, UniProt Q8IWL1+Q8IWL2)
T1 construct: Human PAP patient, BAL isolated; from tissue; host or cells: bronchoalveolar lavage fluid of a patient with pulmonary alveolar proteinosis
Assay: Binding inhibition assay (hSP-A binding to coated mannan)
Settings: GAGs 15 µM to 30 nM, 5 mM CaCl2 (Fig. 1G)
Method: Following previously described assays ([41], [42]), 96-well plates (83.3924.005, Sarstaedt AG, Nümbrecht, Germany) were coated with 70 ng/well (total volume of 100 µL/well) of mannan (M7504, Sigma-Aldrich, St. Louis) dissolved in 0.1 M NaHCO3 buffer (pH 9.6) overnight at 4°C. After removal of the coating solution, wells were blocked with 100 µL of 5 mM Tris with 2% BSA (Serva, Heidelberg, Germany) at room temperature for 2 h. Plates were washed three times with 100 µL/well washing buffer (5 mM Tris, 0.9% NaCl, 0.05% Tween-20, and 5 mM CaCl2). Next, different concentrations of HA, HS, or CS ranging from 15 µM to 30 nM and hSP-A at 14 ng/well were added to washing buffer with 0.1% BSA. The plate was incubated for 2 h at room temperature to allow the protein to bind to either mannan or GAGs. After subsequent washing, as stated before, mannan-bound hSP-A was immunodetected by incubation with a specific anti-SP-A antibody (ab190087, Abcam, Cambridge, UK) at a 0.5 µg/mL concentration for 2 h at room temperature in washing buffer. After washing the excess of antibody, a secondary antibody conjugated with HRP (horseradish peroxidase) anti-goat (Abcam, ab 6885, Cambridge, UK) was added at 2 µg/mL for 1 h at room temperature. After washing, the color reaction was developed by adding 50 µL of TMB liquid substrate (T0440, Sigma-Aldrich, St. Louis). After 30 min, the reaction was stopped by adding 50 µL of Stop Reagent (S5814, Sigma-Aldrich, St. Louis) and the plate was read at 450 nm in a plate reader (FLUOstar Omega, BMG Labtech, Ortenberg, Germany).
The data of the binding inhibition assay were analyzed in GraphPad Prism 9.5.1 using the “normalize” function and fitting to the nonlinear regression dose-response inhibition. […] The fluorescence values from the collectin-based binding assay were normalized using the same “normalize” function in GraphPad, and the statistical test used was the “non-parametric Kruskal-Wallis” test. The statistical test used for the DMMB assay for GAG quantification was also the “non-parametric Kruskal-Wallis” test.

T1 sequence (Q8IWL2 21-248): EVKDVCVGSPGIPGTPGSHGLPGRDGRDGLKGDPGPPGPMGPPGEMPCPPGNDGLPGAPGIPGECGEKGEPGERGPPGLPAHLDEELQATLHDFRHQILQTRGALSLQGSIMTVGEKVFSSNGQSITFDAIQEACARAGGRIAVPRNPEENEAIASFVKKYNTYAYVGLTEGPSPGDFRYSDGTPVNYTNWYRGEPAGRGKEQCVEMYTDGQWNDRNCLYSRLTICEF
T1 sequence (Q8IWL1 21-248): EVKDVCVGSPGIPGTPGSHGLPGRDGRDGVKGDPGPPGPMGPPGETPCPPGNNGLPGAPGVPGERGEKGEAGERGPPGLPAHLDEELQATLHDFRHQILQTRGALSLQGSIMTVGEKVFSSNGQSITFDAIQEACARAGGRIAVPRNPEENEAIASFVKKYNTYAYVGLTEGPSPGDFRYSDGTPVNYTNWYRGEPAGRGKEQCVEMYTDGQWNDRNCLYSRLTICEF

Substance | hSP-A binding inhibition to mannan
heparan sulfate sodium [HS] | in the µM range
chondroitin sulfate sodium salt [CS] | in the µM range
hyaluronic acid sodium salt [HA] | in the µM range
